Data on 20 compounds can be found in patent US20250002507A1, “7,8-DIHYDRO-5H-1,6-NAPHTHYRIDINE DERIVATIVES AS POSITIVE ALLOSTERIC MODULATORS OF THE MUSCARINIC ACETYLCHOLINE RECEPTOR M4 FOR TREATING NEUROLOGICAL AND PSYCHIATRIC DISORDERS” (Vanderbilt University, priority 2021, published 2025).

The target of the assay is T1, Human M4 (Homo sapiens, UniProt P08173).
T1 construct: expressed in transfected cells
T1 sequence (P08173 1-479): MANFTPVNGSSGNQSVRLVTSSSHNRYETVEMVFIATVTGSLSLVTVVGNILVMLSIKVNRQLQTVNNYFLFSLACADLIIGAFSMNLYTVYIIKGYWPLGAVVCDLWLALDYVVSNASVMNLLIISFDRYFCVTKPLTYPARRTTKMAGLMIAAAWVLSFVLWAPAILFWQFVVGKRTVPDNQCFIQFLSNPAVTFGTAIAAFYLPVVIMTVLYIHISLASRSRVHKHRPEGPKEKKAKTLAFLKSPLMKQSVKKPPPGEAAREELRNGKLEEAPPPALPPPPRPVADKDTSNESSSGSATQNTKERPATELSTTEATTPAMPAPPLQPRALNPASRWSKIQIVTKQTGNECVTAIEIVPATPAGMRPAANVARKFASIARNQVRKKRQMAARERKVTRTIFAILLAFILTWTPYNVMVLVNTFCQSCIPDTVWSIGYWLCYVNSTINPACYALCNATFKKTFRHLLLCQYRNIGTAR
Briefly: mAChR M4 cell-based functional assay (calcium flux, potentiation of EC20 acetylcholine response), hM4-Gqi5 CHO-K1 cells. Conditions: for Emax at 30 µM: CHO-K1, Human M4, % ACh maximum at 30 μM, read-out: Emax (% ACh maximum at 30 μM); for Emax at 30 µM / EC50: Table 3; for EC50: potentiation of EC20 acetylcholine response, calcium flux, CHO-K1 cells, read-out: Human M4 EC50. In a few lines: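 Positive allosteric modulation was scored as a concentration-dependent rise in the response to an EC20 dose of acetylcholine, added 144 s after the compound. Human M4-Gqi5 CHO-K1 cells carried Fluo-4 dye, and compounds ran as 11-point, 3-fold dilution series. EC50 and Emax came from four-parameter logistic fits of the FDSS fluorescence-ratio traces.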

In the case of `Cc1cc2nncn2nc1N1CCc2ncc(Nc3nn(C)c4ccccc34)cc2C1` [Compound 204, N-(1-methyl-1H-indazol-3-yl)-6-(7-methyl-[1,2,4]triazolo[4,3-b]pyridazin-6-yl)-5,6,7,8-tetrahydro-1,6-naphthyridin-3-amine], the Emax (commonly the maximal effect, on the per cent scale that the assay sets) at 30 µM worked out at 62% and the EC50 (as a rule, the concentration at which the effect is half-maximal) stood at 3550 nM.
The like results for `Cc1cc2nncn2nc1N1CCc2ncc(Nc3csc4ncccc34)cc2C1` [Compound 205, N-(6-(7-methyl-[1,2,4]triazolo[4,3-b]pyridazin-6-yl)-5,6,7,8-tetrahydro-1,6-naphthyridin-3-yl)thieno[2,3-b]pyridin-3-amine] were, in that order, 65% and 477 nM.
The like results for `Cc1cc2nncn2nc1N1CCc2ncc(N3CCCn4nccc43)cc2C1` [Compound 206, 3-(6,7-dihydropyrazolo[1,5-a]pyrimidin-4(5H)-yl)-6-(7-methyl-[1,2,4]triazolo[4,3-b]pyridazin-6-yl)-5,6,7,8-tetrahydro-1,6-naphthyridine] were, in that order, 96% and 53 nM.
The like results for `Cc1c(N2CCc3ncc(-c4ccc(N5CCCC5)nc4)cc3C2)nn2cnnc2c1C` [Compound 207, 6-(7,8-dimethyl-[1,2,4]triazolo[4,3-b]pyridazin-6-yl)-3-(6-(pyrrolidin-1-yl)pyridin-3-yl)-5,6,7,8-tetrahydro-1,6-naphthyridine] were, in that order, 73% and 401 nM.
Regarding `Cc1c(N2CCc3ncc(-c4ccc(N5CC6(C5)CC(F)(F)C6)nc4)cc3C2)nn2cnnc2c1C` [Compound 208, 3-(6-(6,6-difluoro-2-azaspiro[3.3]heptan-2-yl)pyridin-3-yl)-6-(7,8-dimethyl-[1,2,4]triazolo[4,3-b]pyridazin-6-yl)-5,6,7,8-tetrahydro-1,6-naphthyridine], the Emax at 30 µM is 96% and the EC50 came out at 463 nM.
For the compound `Cc1c(N2CCc3ncc(N4CCCn5nccc54)cc3C2)nn2cnnc2c1C` [Compound 209, 3-(6,7-dihydropyrazolo[1,5-a]pyrimidin-4(5H)-yl)-6-(7,8-dimethyl-[1,2,4]triazolo[4,3-b]pyridazin-6-yl)-5,6,7,8-tetrahydro-1,6-naphthyridine], the Emax at 30 µM worked out at 99% and the half-maximal effective concentration (EC50) turned out to be 71 nM.
Taken in the same sequence, the figures for `Cc1c(N2CCc3ncc(Nc4nn(C)c5ccccc45)cc3C2)nn2cnnc2c1C` [Compound 210, 6-(7,8-dimethyl-[1,2,4]triazolo[4,3-b]pyridazin-6-yl)-N-(1-methyl-1H-indazol-3-yl)-5,6,7,8-tetrahydro-1,6-naphthyridin-3-amine] were 69% and 900 nM.
Taken in the same sequence, the figures for `Cc1cc(Nc2cnc3c(c2)CN(c2nn4cnnc4c(C)c2C)CC3)n(CCC(C)C)n1` [Compound 211, 6-(7,8-dimethyl-[1,2,4]triazolo[4,3-b]pyridazin-6-yl)-N-(1-isopentyl-3-methyl-1H-pyrazol-5-yl)-5,6,7,8-tetrahydro-1,6-naphthyridin-3-amine] were 38% and 4120 nM.
Taken in the same sequence, the figures for `Cc1cc(Nc2cnc3c(c2)CN(c2nn4cnnc4c(C)c2C)CC3)n(CC(C)C)n1` [Compound 212, 6-(7,8-dimethyl-[1,2,4]triazolo[4,3-b]pyridazin-6-yl)-N-(1-isobutyl-3-methyl-1H-pyrazol-5-yl)-5,6,7,8-tetrahydro-1,6-naphthyridin-3-amine] were 41% and 5410 nM.
With `CCCCn1nc(C)cc1Nc1cnc2c(c1)CN(c1nn3cnnc3c(C)c1C)CC2` [Compound 213, N-(1-butyl-3-methyl-1H-pyrazol-5-yl)-6-(7,8-dimethyl-[1,2,4]triazolo[4,3-b]pyridazin-6-yl)-5,6,7,8-tetrahydro-1,6-naphthyridin-3-amine], the maximal effect (Emax) at 30 µM was found to be 52% and the EC50 is 2480 nM.
The like results for `Cc1cc(Nc2cnc3c(c2)CN(c2nn4cnnc4c(C)c2C)CC3)n(C(C)C)n1` [Compound 214, 6-(7,8-dimethyl-[1,2,4]triazolo[4,3-b]pyridazin-6-yl)-N-(1-isopropyl-3-methyl-1H-pyrazol-5-yl)-5,6,7,8-tetrahydro-1,6-naphthyridin-3-amine] were, in that order, 45% and 5500 nM.
The like results for `Cc1c(N2CCc3ncc(-c4ccc(N5CCC(F)(F)CC5)nc4)cc3C2)nn2cnnc2c1C` [Compound 215, 3-(6-(4,4-difluoropiperidin-1-yl)pyridin-3-yl)-6-(7,8-dimethyl-[1,2,4]triazolo[4,3-b]pyridazin-6-yl)-5,6,7,8-tetrahydro-1,6-naphthyridine] were, in that order, 86% and 351 nM.
Consider `Cc1c(N2CCc3ncc(-c4ccc(N5CCCC(F)C5)nc4)cc3C2)nn2cnnc2c1C` (stereo not shown) [Compound 216, 6-(7,8-dimethyl-[1,2,4]triazolo[4,3-b]pyridazin-6-yl)-3-(6-(3-fluoropiperidin-1-yl)pyridin-3-yl)-5,6,7,8-tetrahydro-1,6-naphthyridine], for which the Emax at 30 µM is 82% and the EC50 turned out to be 224 nM.
For `Cc1c(N2CCc3ncc(-c4ccc(N5CCC5)nc4)cc3C2)nn2cnnc2c1C` [Compound 217, 3-(6-(azetidin-1-yl)pyridin-3-yl)-6-(7,8-dimethyl-[1,2,4]triazolo[4,3-b]pyridazin-6-yl)-5,6,7,8-tetrahydro-1,6-naphthyridine], the Emax at 30 µM was determined as 83% and the EC50 was found to be 223 nM.
Taken in the same sequence, the figures for `Cc1c(N2CCc3ncc(C(C)C)cc3C2)nn2cnnc2c1C` [Compound 218, 6-(7,8-dimethyl-[1,2,4]triazolo[4,3-b]pyridazin-6-yl)-3-isopropyl-5,6,7,8-tetrahydro-1,6-naphthyridine] were 89% and 186 nM.
`Cc1c(N2CCc3ncc(C(C)(C)O)cc3C2)nn2c(C(F)(F)F)nnc2c1C` [Compound 219, 2-(6-(7,8-dimethyl-3-(trifluoromethyl)-[1,2,4]triazolo[4,3-b]pyridazin-6-yl)-5,6,7,8-tetrahydro-1,6-naphthyridin-3-yl)propan-2-ol]: the Emax at 30 µM stood at 81% and the EC50 is 906 nM.
With `Cc1c(N2CCc3ncc(O)cc3C2)nn2cnnc2c1C` [Compound 220, 6-(7,8-dimethyl-[1,2,4]triazolo[4,3-b]pyridazin-6-yl)-5,6,7,8-tetrahydro-1,6-naphthyridin-3-ol], the 50% effective concentration (EC50) came to 1370 nM. For the same compound, for the setting “CHO-K1, read-out: Emax (% ACh maximum at 30 μM)”, the maximal response (Emax) came out at 81%.
For the compound `Cc1c(N2CCc3ncc(OCC(C)C)cc3C2)nn2cnnc2c1C` [Compound 221, 6-(7,8-dimethyl-[1,2,4]triazolo[4,3-b]pyridazin-6-yl)-3-isobutoxy-5,6,7,8-tetrahydro-1,6-naphthyridine], the Emax at 30 µM is 76% and the EC50 was 588 nM.
The like results for `Cc1c(N2CCc3ncc(C4CC4)cc3C2)nn2c(C(F)(F)F)nnc2c1C` [Compound 222, 3-cyclopropyl-6-(7,8-dimethyl-3-(trifluoromethyl)-[1,2,4]triazolo[4,3-b]pyridazin-6-yl)-5,6,7,8-tetrahydro-1,6-naphthyridine] were, in that order, 83% and 88 nM.
For the compound `Cc1c(N2CCc3ncc(-c4ccc(N5CCOCC5)cc4)cc3C2)nn2cnnc2c1C` [Compound 223, 4-(4-(6-(7,8-dimethyl-[1,2,4]triazolo[4,3-b]pyridazin-6-yl)-5,6,7,8-tetrahydro-1,6-naphthyridin-3-yl)phenyl)morpholine], the Emax at 30 µM was found to be 95% and the concentration giving a half-maximal response (EC50) came out at 329 nM.
